In patent publication US12428406B2 (PMV Pharmaceuticals, Inc., priority 2019, dated 2025):

Target: T1, p53 Y220C (Homo sapiens, UniProt P04637, Y220C)
T1 construct: The recombinant protein was a truncation mutant containing only amino acids 94-312 of p53; made in house; host or cells: E. coli
Test: In vitro DNA binding activity assay (HTRF / TR-FRET): stabilization of p53 Y220C and increase of its DNA binding activity
Type: biochemical
Conditions: recombinant His-tagged p53 Y220C DNA binding domain (aa 94-312), biotin-labeled consensus DNA, incubated at 27° C. or 29° C. for 60 min
Method in brief: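 Stabilization of the mutant is inferred from increased binding of His-tagged p53 Y220C to a biotin-labeled consensus DNA, detected by HTRF with europium-streptavidin and APC-anti-His antibody. The concentration giving a 50% rise over compound-free binding is reported as SC150.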

T1 sequence (P04637 94-312, change not shown): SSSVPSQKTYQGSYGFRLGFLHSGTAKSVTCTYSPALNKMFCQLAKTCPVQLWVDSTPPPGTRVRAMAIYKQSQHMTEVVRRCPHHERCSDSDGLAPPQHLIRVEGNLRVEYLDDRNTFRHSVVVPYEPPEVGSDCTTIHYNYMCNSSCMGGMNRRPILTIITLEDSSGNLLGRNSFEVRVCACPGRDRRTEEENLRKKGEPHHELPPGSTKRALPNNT

SMILES	SC150 (concentration of the compound required to increase the DNA binding activity by 50%)
COc1cc(S(N)(=O)=O)ccc1NCC#Cc1cc2c(NC3CCC4(CC3)OCCO4)cccc2n1CC(F)(F)F [Compound 63A, 4-({3-[4-({1,4-dioxaspiro[4.5]decan-8-yl}amino)-1-(2,2,2-trifluoroethyl)-1H-indol-2-yl]prop-2-yn-1-yl}amino)-3-methoxy-benzene-1-sulfonamide]	+ (+ = 0 μM ≤ SC150 < 0.05 μM)
COc1cc(S(C)(=O)=O)ccc1NCC#Cc1cc2c(NC3CCC4(CC3)OCCO4)cccc2n1CC(F)(F)F [Compound 64A, N-{1,4-dioxaspiro[4.5]decan-8-yl}-2-{3-[(4-methane-sulfonyl-2-methoxy-phenyl)amino]prop-1-yn-1-yl}-1-(2,2,2-trifluoroethyl)-1H-indol-4-amine]	+ (+ = 0 μM ≤ SC150 < 0.05 μM)
COc1cc(S(N)(=O)=O)ccc1NCC#Cc1cc2c(NC3CCC(=O)CC3)cccc2n1CC(F)(F)F [Compound 65A, 3-methoxy-4-[(3-{4-[(4-oxocyclohexyl)amino]-1-(2,2,2-trifluoroethyl)-1H-indol-2-yl}prop-2-yn-1-yl)amino]benzene-1-sulfonamide]	+ (+ = 0 μM ≤ SC150 < 0.05 μM)
COc1cc(S(C)(=O)=O)ccc1NCC#Cc1cc2c(NC3CCC(=O)CC3)cccc2n1CC(F)(F)F [Compound 66A, 4-[(2-{3-[(4-methane-sulfonyl-2-methoxy-phenyl)amino]prop-1-yn-1-yl}-1-(2,2,2-trifluoroethyl)-1H-indol-4-yl)amino]cyclo-hexan-1-one]	+ (+ = 0 μM ≤ SC150 < 0.05 μM)
COc1cc(S(=O)(=O)N2CCOCC2)ccc1NCC#Cc1cc2c(N[C@H]3CC[C@H](N(C)C)CC3)cccc2n1CC(F)(F)F [Compound 67A, (1R,4R)-N^4-[2-(3-{[2-methoxy-4-(morpholine-4-sulfonyl)phenyl]amino}prop-1-yn-1-yl)-1-(2,2,2-trifluoro-ethyl)-1H-indol-4-yl]-N^1,N^1-dimethyl-cyclohexane-1,4-diamine]	+ (+ = 0 μM ≤ SC150 < 0.05 μM)
COc1cc(S(=O)(=O)N2CCOCC2)ccc1NCC#Cc1cc2c(N[C@H]3CC[C@@H](N(C)C)CC3)cccc2n1CC(F)(F)F [Compound 68A, (1S,4S)-N4-[2-(3-{[2-methoxy-4-(morpholine-4-sulfonyl)phenyl]amino}prop-1-yn-1-yl)-1-(2,2,2-trifluoro-ethyl)-1H-indol-4-yl]-N^1,N^1-dimethyl-cyclohexane-1,4-diamine]	+ (+ = 0 μM ≤ SC150 < 0.05 μM)
COc1cc(S(=O)(=O)N(CCO)CCO)ccc1NCC#Cc1cc2c(N[C@H]3CC[C@@H](N(C)C)CC3)cccc2n1CC(F)(F)F [Compound 69A, N,N-bis(2-hydroxyethyl)-3-methoxy-4-{[3-(4-{[(1S,4S)-4-(dimethyl-amino)cyclohexyl]amino}-1-(2,2,2-trifluoroethyl)-1H-indol-2-yl)prop-2-yn-1-yl]amino}benzene-1-sulfonamide]	+ (+ = 0 μM ≤ SC150 < 0.05 μM)
COc1cc(S(=O)(=O)N(CCO)CCO)ccc1NCC#Cc1cc2c(N[C@H]3CC[C@H](N(C)C)CC3)cccc2n1CC(F)(F)F [Compound 70A, N,N-bis(2-hydroxyethyl)-3-methoxy-4-{[3-(4-{[(1R,4R)-4-(dimethyl-amino)cyclohexyl]amino}-1-(2,2,2-trifluoroethyl)-1H-indol-2-yl)prop-2-yn-1-yl]amino}benzene-1-sulfonamide]	+ (+ = 0 μM ≤ SC150 < 0.05 μM)
CNS(=O)(=O)c1ccc(NCC#Cc2cc3c(N[C@H]4CC[C@H](N(C)C)CC4)cccc3n2CC(F)(F)F)c(OC)c1 [Compound 71A, 3-methoxy-N-methyl-4-{[3-(4-{[(1R,4R)-4-(dimethylamino)cyclohexyl]amino}-1-(2,2,2-trifluoroethyl)-1H-indol-2-yl)prop-2-yn-1-yl]amino}benzene-1-sulfonamide]	+ (+ = 0 μM ≤ SC150 < 0.05 μM)
CNS(=O)(=O)c1ccc(NCC#Cc2cc3c(N[C@H]4CC[C@@H](N(C)C)CC4)cccc3n2CC(F)(F)F)c(OC)c1 [Compound 72A, 3-methoxy-N-methyl-4-{[3-(4-{[(1S,4S)-4-(dimethylamino)cyclohexyl]amino}-1-(2,2,2-trifluoroethyl)-1H-indol-2-yl)prop-2-yn-1-yl]amino}benzene-1-sulfonamide]	+ (+ = 0 μM ≤ SC150 < 0.05 μM)
COc1cc(C(N)=O)ccc1NCC#Cc1cc2c(N[C@H]3CC[C@H](N(C)C)CC3)cccc2n1CC(F)(F)F [Compound 73A, 3-methoxy-4-{[3-(4-{[(1R,4R)-4-(dimethyl-amino)cyclohexyl]amino}-1-(2,2,2-trifluoroethyl)-1H-indol-2-yl)prop-2-yn-1-yl]amino}benzamide]	+ (+ = 0 μM ≤ SC150 < 0.05 μM)
CNC(=O)c1ccc(NCC#Cc2cc3c(N[C@H]4CC[C@H](N(C)C)CC4)cccc3n2CC(F)(F)F)c(OC)c1 [Compound 74A, 3-methoxy-N-methyl-4-{[3-(4-{[(1R,4R)-4-(dimethylamino)cyclohexyl]amino}-1-(2,2,2-trifluoroethyl)-1H-indol-2-yl)prop-2-yn-1-yl]amino}benzamide]	+ (+ = 0 μM ≤ SC150 < 0.05 μM)
CNC(=O)c1ccc(NCC#Cc2cc3c(N[C@H]4CC[C@@H](N(C)C)CC4)cccc3n2CC(F)(F)F)c(OC)c1 [Compound 75A, 3-methoxy-N-methyl-4-{[3-(4-{[(1S,4S)-4-(dimethylamino)cyclohexyl]amino}-1-(2,2,2-trifluoroethyl)-1H-indol-2-yl)prop-2-yn-1-yl]amino}benzamide]	++ (++ = 0.05 μM ≤ SC150 < 0.1 μM)
COc1cc(S(=O)(=O)N2CCN(C)CC2)ccc1NCC#Cc1cc2c(N[C@H]3CC[C@H](N(C)C)CC3)cccc2n1CC(F)(F)F [Compound 76A, (1R,4R)-N^4-{2-[3-({2-methoxy-4-[(4-methylpiperazin-1-yl)sulfonyl]phenyl}amino)prop-1-yn-1-yl]-1-(2,2,2-trifluoroethyl)-1H-indol-4-yl}-N^1,N^1-dimethyl-cyclohexane-1,4-diamine]	+ (+ = 0 μM ≤ SC150 < 0.05 μM)
COc1cc(S(C)(=O)=O)ccc1NCC#Cc1cc2c(N[C@H]3CC[C@H](N(C)C)CC3)cccc2n1CC1CO1 (stereo partly drawn) [Compound 77A, (1R,4R)—N^4-(2-{3-[(4-methanesulfonyl-2-methoxyphenyl)amino]prop-1-yn-1-yl}-1-[(oxiran-2-yl)methyl]-1H-indol-4-yl)-N^1,N^1-dimethylcyclohexane-1,4-diamine]	++++ (++++ = 0.2 μM ≤ SC150 < 1 μM)
C=C(C#N)Cn1c(C#CCNc2ccc(S(C)(=O)=O)cc2OC)cc2c(N[C@H]3CC[C@H](N(C)C)CC3)cccc21 [Compound 78A, 2-[(2-{3-[(4-methanesulfonyl-2-methoxyphenyl)amino]prop-1-yn-1-yl}-4-{[(1R,4R)-4-(dimethylamino)cyclohexyl]amino}-1H-indol-1-yl)methyl]prop-2-enenitrile]	+++ (+++ = 0.1 μM ≤ SC150 < 0.2 μM)
